Measured values as given in patent US11656221B2, “Methods to identify modulators of actin-binding proteins” (Regents of the University of Minnesota, priority 2019, dated 2023).
pKd: −log10 of the molar value. “Also recorded” adds a separate entry of the source.

Experiments:
[1] = molecular target: T1, GFP-ABD-L253P and mCherry (non-specific FRET) in HEK293-6E cells (Homo sapiens, UniProt O15020, L253P); test: Counter FRET assay, non-specific FRET (GFP-ABD-L253P plus mCherry); assay type: cell-based; conditions: swinholide A 3 μM
T1 construct: L252P β-III-spectrin (human) ABD residues 1-284; expressed in transfected cells; host or cells: HEK293-6E, pTT5 vector, transient
Method: At 2×10^6 cells/mL, HEK293-6E cells were transfected with GFP-ABD (2.4 μg), Lifeact-mCherry (2.4-16.8 μg), mCherry (1.2-16.8 μg), and/or pTT5 (0.8-17.6 μg) using the 293fectin protocol (Thermo Fisher Scientific) with 20 μg total DNA. The cells were harvested 24 hours later by centrifugation at 100×g for 5 min, and then washed twice with PBS. Cell viability and concentration were determined using trypan blue assay and a Countess cell counter (Invitrogen).
Using a Multidrop Combi liquid dispenser (Thermo Fisher Scientific), 10^6 cells/mL were dispersed into 1536-well and 384-well plates as 5 or 50 μL aliquots, respectively. For control and tool compound plates, 100 nL of DMSO or potential tool compound was loaded using the Mantis (Formulatrix). […] Two to three hours after sample loading, fluorescence lifetime measurements were performed using high-throughput fluorescence plate-readers provided by Photonic Pharma LLC (MN, USA), including one detecting fluorescence lifetime and another detecting fluorescence spectra, as described previously.
To develop a biosensor that monitors the binding of mutant L253P β-III-spectrin to actin filaments in live cells, a fluorescence resonance energy transfer (FRET) approach was tested. […] To measure the non-specific component to our FRET readout, we concurrently tested expression of mCherry in place of Lifeact-mCherry. […]

[2] = molecular target: T2, ABD-L253P (L253P β-III-spectrin ABD) binding to F-actin (Homo sapiens, UniProt O15020, L253P); test: F-actin and ABD co-sedimentation assay; conditions: 3 μM, 1 μM ABD, 1 μM F-actin
T2 construct: His-SUMO (cleaved yes); made in house; host or cells: E. coli BL21(DE3), pE-SUMOpro; actin from rabbit psoas muscle
Method: Actin was purified from acetone powder derived from the psoas muscle of New Zealand white rabbit (Oryctolagus cuniculus). Filamentous (F)-actin was stored for up to 3 days on ice before use in binding assays. Within an hour of the binding assay, the F-actin was clarified at 100,000×g at 4° C. for 10 min prior to setting up binding assays. The L253P β-III-spectrin ABD was expressed in E. coli BL21(DE3) (Novagen). The ABD was purified and the His-SUMO tag proteolytically removed, as previously described, except size-exclusion chromatography was not performed due to the high purity of the ABD protein. Lifeact-mCherry protein was similarly prepared. A Bradford assay was performed to determine clarified F-actin and ABD protein concentrations.
F-actin and ABD binding assays were performed as previously described. In brief, binding assays used 1 μM ABD protein, 1 μM F-actin and 1-50 μM compound (as indicated) or DMSO control for a total reaction volume of 60 μL in F-buffer containing 10 mM Tris, pH 7.5, 150 mM NaCl, 0.5 mM ATP, 2 mM MgCl2, and 1 mM DTT. Following 30 min incubation at room temperature (21° C.). F-actin was pelleted using centrifugation at 100,000×g at 25° C. for 30 min. Unbound ABD in the supernatant was measured following SDS-PAGE and Coomassie blue staining in accord. In addition, control co-sedimentations assays that lacked actin were performed to test if compounds cause ABD aggregation. […] Amount of mCherry was determined by acquiring fluorescence spectrum peak intensity at ˜600 nm using a spectral unmixing plate reader (Fluorescence Innovations, Inc) equipped with a 532 nm laser (Laserglow Technologies, Ontario, Canada) for excitation, 532 nm longpass filter for emission, and PMT for emission detection. The fraction of Lifeact-mCherry bound to F-actin was determined by subtracting from one the fraction of supernatant fluorescence intensity relative to the no-actin control sample, using the following equation: […]

actin = actin sedimentation assay; read-out: previously reported affinity value; cited from earlier work

T2 sequence (O15020 1-284 L253P): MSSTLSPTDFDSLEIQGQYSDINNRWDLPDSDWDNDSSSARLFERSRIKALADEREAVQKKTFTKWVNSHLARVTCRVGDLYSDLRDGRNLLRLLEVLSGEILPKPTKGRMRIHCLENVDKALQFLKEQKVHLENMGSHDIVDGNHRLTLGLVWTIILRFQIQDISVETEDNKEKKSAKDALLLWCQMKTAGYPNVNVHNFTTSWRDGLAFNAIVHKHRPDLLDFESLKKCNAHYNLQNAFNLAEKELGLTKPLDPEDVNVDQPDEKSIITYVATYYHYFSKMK
T1 sequence (O15020 1-284 L253P): as above

CO[C@H]1C[C@H](CC[C@H](C)[C@H](O)[C@H](C)[C@H]2OC(=O)/C=C/C(C)=C/C[C@H](O)C[C@@H]3C=CC[C@@H](C[C@H](OC)[C@@H](C)[C@@H](O)C[C@@H](O)[C@H](C)[C@@H]([C@@H](C)[C@@H](O)[C@@H](C)CC[C@H]4C[C@H](OC)C[C@H](C)O4)OC(=O)/C=C/C(C)=C/C[C@H](O)C[C@@H]4C=CC[C@@H](C[C@H](OC)[C@@H](C)[C@@H](O)C[C@@H](O)[C@@H]2C)O4)O3)O[C@@H](C)C1 [swinholide A]
effect on counter (non-specific) FRET [1]: did not significantly alter
effect on ABD-L253P binding to actin [2]: did reduce; also recorded: ablation
effect on ABD-L253P binding to actin ([2]; listed as swiholide A): reduce ABD-L253P binding to actin
pKd (actin): 7.30
